Experimental data as given in patent publication US20200037600A1, “MESOIONIC IMIDAZOPYRIDINES AS INSECTICIDES” (Bayer Aktiengesellschaft, priority 2017, published 2020).

Columns and labels:
[1] = test system: Myzus persicae; experiment: Myzus persicae oral test; type: in vivo; conditions: after 5 days; for pest or weed control at 4 ppm: Myzus persicae, po, 120 h, read-out: efficacy
Protocol: Solvent: 100 parts by weight of acetone
To produce a suitable active compound formulation, 1 part by weight of active compound is dissolved with the stated parts by weight of solvent and made up to the desired concentration with water.
50 μl of the active compound formulation are transferred into microtitre plates and made up to a final volume of 200 μl with 150 μl of IPL41 insect medium (33%+15% sugar). Subsequently, the plates are sealed with parafilm, which a mixed population of green peach aphids (Myzus persicae) within a second microtitre plate is able to puncture and imbibe the solution.
(§1) After 5 days, the efficacy in % is determined. 100% means that all the aphids have been killed; 0% means that no aphids have been killed.

[2] = test system: Ctenocephalides felis; experiment: Ctenocephalides felis in vitro contact test with adult cat fleas; type: in vivo; conditions: application rate 5 μg/cm^2 (=500 g/ha), after 48 h
Protocol: Ctenocephalides felis—In Vitro Contact Tests with Adult Cat Fleas
(§2) For the coating of the test tubes, 9 mg of active compound are first dissolved in 1 ml of acetone p.a. and then diluted to the desired concentration with acetone p.a. 250 μl of the solution are distributed homogeneously on the inner walls and the base of a 25 ml glass tube by turning and rocking on an orbital shaker (rocking rotation at 30 rpm for 2 h). With 900 ppm of active compound solution and internal surface area 44.7 cm^2, given homogeneous distribution, an area-based dose of 5 μg/cm^2 is achieved.
After the solvent has evaporated off, the tubes are populated with 5-10 adult cat fleas (Ctenocephalides felis), sealed with a perforated plastic lid and incubated in a horizontal position at room temperature and ambient humidity. After 48 h, efficacy is determined. To this end, the tubes are stood upright and the fleas are knocked to the base of the tube. Fleas which remain motionless at the base or move in an uncoordinated manner are considered to be dead or moribund.
100% efficacy means that all the fleas were dead or moribund. 0% efficacy means that no fleas were harmed.

[3] = test system: Musca domestica; experiment: Musca domestica test; type: in vivo; conditions: application rate 100 ppm; adult houseflies; after 2 days
Protocol: (§3) Solvent: dimethyl sulfoxide
(§4) To produce a suitable active compound formulation, 10 mg of active compound are mixed with 0.5 ml of dimethyl sulfoxide, and the concentrate is diluted with water to the desired concentration.
Vessels containing a sponge treated with sugar solution and the active compound formulation of the desired concentration are populated with 10 adult houseflies (Musca domestica).
After 2 days, the kill in % is determined. 100% means that all of the flies have been killed; 0% means that none of the flies have been killed.

[4] = test system: Diabrotica balteata; experiment: Diabrotica balteata spray test; type: in vivo; conditions: application rate 160 μg/well, beetle larvae on germinated wheat grains, after 7 days; for pest or weed control at 160 µg/disc, 160 µg/well: Diabrotica balteata, 168 h, read-out: efficacy
Protocol: Diabrotica balteata—Spray Test
(§5) Solvent: 78 parts by weight of acetone • • 1.5 parts by weight of dimethylformamide
(§6) Emulsifier: alkylaryl polyglycol ether
(§7) To produce a suitable active compound formulation, 1 part by weight of active compound is dissolved with the specified parts by weight of solvent and made up to the desired concentration with water containing an emulsifier concentration of 1000 ppm. To produce further test concentrations, the formulation is diluted with emulsifier-containing water.
Pre-swollen wheat grains (Triticum aestivum) are incubated in a multiwell plate filled with agar and a little water for one day (5 seed grains per well). The germinated wheat grains are sprayed with an active compound preparation of the desired concentration. Subsequently, each cavity is infected with 10-20 beetle larvae of Diabrotica balteata.
After 7 days, the efficacy in % is determined. 100% means that all maize plants have grown as in the untreated, uninfected control; 0% means that no maize plant has grown.

[5] = test system: Myzus persicae; experiment: Myzus persicae spray test; type: in vivo; conditions: application rate 500 g/ha, Chinese cabbage leaf discs, after 5 days; for pest or weed control at 500 g/ha: Myzus persicae, foliar, 120 h, read-out: efficacy
Protocol: Myzus persicae—Spray Test
as §5, §6, §7
Discs of Chinese cabbage leaves (Brassica pekinensis) infested by all stages of the green peach aphid (Myzus persicae) are sprayed with an active compound formulation of the desired concentration.
as §1

[6] = test system: Lucilia cuprina; experiment: Lucilia cuprina test; type: in vivo; conditions: application rate 100 ppm; L1 larvae; after 2 days
Protocol: as §3, §4
About 20 L1 larvae of the Australian sheep blowfly (Lucilia cuprina) are transferred into a test vessel containing minced horsemeat and the active compound formulation of the desired concentration.
After 2 days, the kill in % is determined. 100% means that all the larvae have been killed; 0% means that no larvae have been killed.

[7] = test system: Ctenocephalides felis; experiment: Ctenocephalides felis oral test; type: in vivo; conditions: application rate 100 ppm in citrated cattle blood; adult cat fleas; after 2 days
Protocol: Ctenocephalides felis—Oral Test
as §3
To produce a suitable active compound formulation, 10 mg of active compound are mixed with 0.5 ml of dimethyl sulfoxide. Dilution with citrated cattle blood gives the desired concentration.
About 20 unfed adult cat fleas (Ctenocephalides felis) are placed into a chamber which is closed at the top and bottom with gauze. A metal cylinder whose bottom end is closed with parafilm is placed onto the chamber. The cylinder contains the blood/active compound formulation, which can be imbibed by the fleas through the parafilm membrane.
After 2 days, the kill in % is determined. 100% means that all of the fleas have been killed; 0% means that none of the fleas have been killed.

[8] = log P by HPLC (EEC directive 79/831 Annex V.A8); type: physicochemical
Protocol: The log P values reported in the tables and preparation examples above were determined in accordance with EEC directive 79/831 Annex V.A8 by HPLC (High Performance Liquid Chromatography) using a reversed-phase column (C18). Temperature 43° C. The calibration is effected with unbranched alkan-2-ones (having 3 to 16 carbon atoms), for which the log P values are known.

[9] = test system: Spodoptera frugiperda; experiment: Spodoptera frugiperda spray test; type: in vivo; conditions: application rate 500 g/ha; caterpillars on maize leaf discs; after 7 days
Protocol: Spodoptera frugiperda—Spray Test
(§8) Solvent: 78.0 parts by weight of acetone • • 1.5 parts by weight of dimethylformamide
as §6, §7
Leaf discs of maize (Zea mays) are sprayed with an active compound formulation of the desired concentration and, after drying, populated with caterpillars of the fall armyworm (Spodoptera frugiperda).
After 7 days, the efficacy in % is determined. 100% means that all the caterpillars have been killed; 0% means that no caterpillar has been killed.

[10] = test system: Phaedon cochleariae; experiment: Phaedon cochleariae spray test; type: in vivo; conditions: foliar, 168 h, application rate 500 g/ha, larvae on Chinese cabbage leaf discs, after 7 days, read-out: efficacy
Protocol: Phaedon cochleariae—Spray Test
as §8, §6, §7
Discs of Chinese cabbage leaves (Brassica pekinensis) are sprayed with an active compound formulation of the desired concentration and, after drying, populated with larvae of the mustard beetle (Phaedon cochleariae).
After 7 days, the efficacy in % is determined. 100% means that all the beetle larvae have been killed; 0% means that no beetle larvae have been killed.

[11] = test system: Rhipicephalus sanguineus; experiment: Rhipicephalus sanguineus in vitro contact test with adults of the brown dog tick; type: in vivo; conditions: application rate 5 μg/cm^2 (=500 g/ha), adult dog ticks, after 48 h
Protocol: Rhipicephalus sanguineus—In Vitro Contact Tests with Adults of the Brown Dog Tick
as §2
After the solvent has evaporated off, the tubes are populated with 5-10 adult dog ticks (Rhipicephalus sanguineus), sealed with a perforated plastic lid and incubated in the dark in a horizontal position at room temperature and ambient humidity. After 48 h, efficacy is determined. To this end, the ticks are knocked to the base of the tube and, incubated on a heating plate at 45-50° C. for a maximum of 5 minutes. Ticks which remain motionless at the base or move in such an uncoordinated manner that they cannot purposely escape the heat by climbing upward are considered to be dead or moribund.
100% efficacy means that all the ticks were dead or moribund. 0% efficacy means that no ticks were harmed.

[12] = test system: Tetranychus urticae; experiment: Tetranychus urticae spray test, OP-resistant; type: in vivo; conditions: application rate 500 g/ha, bean leaf discs, after 6 days
Protocol: Tetranychus urticae—Spray Test, OP-Resistant
as §8, §6, §7
Discs of bean leaves (Phaseolus vulgaris) infested by all stages of the red spider mite (Tetranychus urticae) are sprayed with an active compound formulation of the desired concentration.
After 6 days, the efficacy in % is determined. 100% means that all the spider mites have been killed; 0% means that no spider mites have been killed.

O=C(c1c([O-])[n+]2ccccc2n1Cc1cnc(Cl)s1)C(F)(F)F [Example I-007]
efficacy ([1]; application rate 4 ppm): 100% | efficacy ([1]; application rate 20 ppm): 100% | efficacy [2]: 100% | efficacy (kill in %) [3]: 90% | efficacy [4]: 100% | efficacy [5]: 100% | efficacy (kill in %) [6]: 85% | efficacy (kill in %) [7]: 95%

O=C(c1c([O-])[n+]2ccccc2n1Cc1cnc(Cl)s1)C(Cl)(Cl)Cl [Example I-011, 1-[(2-Chlorothiazol-5-yl)methyl]-2-(2,2,2-trichloroacetyl)imidazo[1,2-a]pyridin-4-ium-3-olate]
chromatographic logP [8]: 2.44 | pest or weed control at 4 ppm ([1]; application rate 4 ppm): 100% | pest or weed control at 160 µg/disc, 160 µg/well [4]: 100% | pest or weed control at 500 g/ha [5]: 90% | efficacy [9]: 100%

O=C(c1ccccc1)c1c([O-])[n+]2ccccc2n1Cc1cnc(Cl)s1 [Example I-013]
efficacy ([1]; application rate 4 ppm): 100% | efficacy ([1]; application rate 20 ppm): 100% | efficacy [2]: 100% | efficacy (kill in %) [3]: 90% | efficacy [4]: 80% | efficacy [5]: 100%

O=Cc1c([O-])[n+]2ccccc2n1Cc1cnc(Cl)s1 [Example I-015, 1-[(2-Chlorothiazol-5-yl)methyl]-2-formylimidazo[1,2-a]pyridin-4-ium-3-olate]
chromatographic logP [8]: 1.01 | pest or weed control at 4 ppm ([1]; application rate 4 ppm): 100% | efficacy [2]: 100% | pest or weed control at 160 µg/disc, 160 µg/well [4]: 100% | pest or weed control at 500 g/ha [5]: 90%

O=C(c1c([O-])[n+]2ccccc2n1Cc1cnc(Cl)s1)C(F)(F)Cl [Example I-019]
efficacy ([1]; application rate 4 ppm): 100% | efficacy [2]: 100% | efficacy (kill in %) [3]: 80% | efficacy [4]: 100% | efficacy [5]: 100% | efficacy (kill in %) [6]: 95% | efficacy (kill in %) [7]: 95% | efficacy [9]: 100%

Cc1ccc[n+]2c([O-])c(C(=O)C(F)(F)F)n(Cc3cnc(Cl)s3)c12 [Example I-024, 1-[(2-Chlorothiazol-5-yl)methyl]-8-methyl-2-(2,2,2-trifluoroacetyl)imidazo[1,2-a]pyridin-4-ium-3-olate]
chromatographic logP [8]: 2.07 | pest or weed control at 4 ppm ([1]; application rate 4 ppm): 100% | efficacy [2]: 100% | pest or weed control at 160 µg/disc, 160 µg/well [4]: 100% | pest or weed control at 500 g/ha [5]: 90% | efficacy (kill in %) [6]: 100% | efficacy (kill in %) [7]: 90% | efficacy [9]: 83% | pest or weed control at 500 g/ha [10]: 100% | efficacy [11]: 100%

CCOC(=O)C(=O)c1c([O-])[n+]2cccc(C)c2n1Cc1cnc(Cl)s1 [Example I-033]
pest or weed control at 4 ppm ([1]; application rate 4 ppm): 100% | efficacy [2]: 100% | efficacy (kill in %) [3]: 100% | pest or weed control at 160 µg/disc, 160 µg/well [4]: 100% | pest or weed control at 500 g/ha [5]: 90% | efficacy (kill in %) [7]: 95%

CCC(C)OC(=O)C(=O)c1c([O-])[n+]2ccccc2n1Cc1cnc(Cl)s1 (centres unmarked) [Example I-037]
efficacy ([1]; application rate 4 ppm): 100% | efficacy (kill in %) [3]: 100% | efficacy [12]: 90% | efficacy [4]: 100% | efficacy [5]: 100% | efficacy (kill in %) [6]: 95%

CC(C)OC(=O)C(=O)c1c([O-])[n+]2ccccc2n1Cc1cnc(Cl)s1 [Example I-038]
efficacy ([1]; application rate 4 ppm): 100% | efficacy (kill in %) [3]: 100% | efficacy [5]: 90% | efficacy (kill in %) [6]: 90% | efficacy (kill in %) [7]: 80% | efficacy [11]: 100% | efficacy ([11]; listed as 1-038): 80%

O=C(OCC1CCC1)C(=O)c1c([O-])[n+]2ccccc2n1Cc1cnc(Cl)s1 [Example I-039]
efficacy ([1]; application rate 4 ppm): 100% | efficacy [12]: 90% | efficacy [5]: 90%

CCN(CC)C(=O)C(=O)c1c([O-])[n+]2ccccc2n1Cc1cnc(Cl)s1 [Example I-040]
efficacy [12]: 100% | efficacy [5]: 90%

CN(C)C(=O)C(=O)c1c([O-])[n+]2ccccc2n1Cc1cnc(Cl)s1 [Example I-041]
efficacy [12]: 90%

Cc1ccc[n+]2c([O-])c(C(=O)C(=O)OCC3CCC3)n(Cc3cnc(Cl)s3)c12 [Example I-046]
pest or weed control at 4 ppm ([1]; application rate 4 ppm): 100% | pest or weed control at 160 µg/disc, 160 µg/well [4]: 100% | pest or weed control at 500 g/ha [5]: 90% | efficacy [9]: 83% | pest or weed control at 500 g/ha [10]: 100%

COCCOC(=O)C(=O)c1c([O-])[n+]2ccccc2n1Cc1cnc(Cl)s1 [Example I-050]
efficacy ([1]; application rate 4 ppm): 100% | efficacy [12]: 90% | efficacy [5]: 100%

Cc1ccc[n+]2c([O-])c(C(=O)C(F)(F)Cl)n(Cc3cnc(Cl)s3)c12 [Example I-060]
efficacy [9]: 100% | pest or weed control at 500 g/ha [10]: 100%

Cc1ccc[n+]2c([O-])c(C(=O)C(F)F)n(Cc3cnc(Cl)s3)c12 [Example I-061]
pest or weed control at 4 ppm ([1]; application rate 4 ppm): 100% | efficacy [9]: 100% | pest or weed control at 500 g/ha [10]: 100%

Cc1ccc[n+]2c([O-])c(C(=O)C(F)(F)C(F)F)n(Cc3cnc(Cl)s3)c12 [Example I-063]
pest or weed control at 4 ppm ([1]; application rate 4 ppm): 100% | efficacy [9]: 100% | pest or weed control at 500 g/ha [10]: 100%
